SMILES strings stand for the structures.

The test system of one series is human CYP1A2. As to the kind of experiment: Reporter assay in HepG2 cells: secreted alkaline phosphatase (SEAP) activity, which reflects CYP1A2. Format: cell-based. The conditions noted are these: for reporter activity (SEAP) compared with DMSO: expression vector K, L or P (only region neighboring CYP1A2); for reporter activity (SEAP) compared with DMSO / reporter activity (SEAP): 40 hours; for reporter activity (SEAP): expression vector M; for SEAP activity compared with the group where DMSO alone was added: reporter vectors A to J, N, O, T and U, 40 hours after addition, 3-MC 1 μM, BNF 10 μM.

The subject of a further series is human CYP1A1. The series is described as follows: Reporter assay in HepG2 cells: luciferase (Luc) activity, which reflects CYP1A1. To be noted: reporter vectors A to J, N, O, T and U, 40 hours after addition, 3-MC 1 μM, BNF 10 μM.
Series [1] relates to transcriptional regulatory region of human CYP1A1 and CYP1A2. As to the kind of experiment: Reporter assay in HepG2 cells with dual reporter vectors, reporter (SEAP/Luc) not distinguished in the statement. To be noted: for enhancement of expression of the reporter: reporter vector T (comprises XRE E8, lacks 1535 to 2866); for induction of expression of the reporter: reporter vector U (does not comprise XRE E8); for reporter activities compared with DMSO: reporter vectors E1 to E5 (each one XRE deleted), E3 slightly lower; for enhancement of the expression of the reporter: reporter vectors comprising nucleotide numbers 1535 to 2867 in SEQ ID NO: 1 (XREs densely exist), HepG2.
Method: (§1) Each of the obtained reporter vector comprising the transcriptional regulatory region of human CYP1A1 and CYP1A2 and reporter vectors comprising the transcriptional regulatory region partially deleted was transiently expressed in HepG2 cells (purchased from RIKEN) by using a transfection reagent (FuGene6, Roche), and 40 hours after the addition of a drug dissolved in DMSO or DMSO alone, the activity of a secreted alkaline phosphatase (SEAP), which reflects CYP1A2, and the activity of a luciferase (Luc), which reflects CYP1A1, were measured. LumiPhos 530 (Lumigen Inc.) was used as a substrate for the measurement of the SEAP activity.
A reporter assay was performed by using the obtained vectors.

Method for human CYP1A2: as §1
In the same manner as that in 4, the expression vectors K to M and P to S obtained above were transiently expressed in HepG2 cells by using the gene transfer reagent, and 40 hours after the addition of a drug dissolved in DMSO or DMSO alone, activity of a secreted alkaline phosphatase (SEAP) was measured (FIG. 5).
In the same manner as that in 4, each of the expression vectors A to J, N, O, T and U was transiently expressed in HepG2 cells by using the transfection reagent, and 40 hours after the addition of a drug dissolved in DMSO or DMSO alone, activity of a secreted alkaline phosphatase (SEAP), which reflects CYP1A2, and activity of a luciferase (Luc), which reflects CYP1A1, were measured.

Consider `Cc1ccc2cc3c(ccc4ccccc43)c3c2c1CC3` [3-MC, 3-methylcholanthrene], for which, in the series with human CYP1A2, the “reporter activity (SEAP) compared with DMSO” value is recorded as ~1 fold; the “reporter activity (SEAP)” value was “at the background level”; the “SEAP activity compared with the group where DMSO alone was added” value is “increase in the SEAP activity and Luc activity was observed”. Further, the “Luc activity compared with the group where DMSO alone was added” value in the series with human CYP1A1 was “increase in the SEAP activity and Luc activity was observed”. In series [1], the “enhancement of expression of the reporter” value is given as “strong enhancement of expression”, the “induction of expression of the reporter” value is “did not show the induction”, the “reporter activities compared with DMSO” value was “several folds to 10 or more folds higher” and the “enhancement of the expression of the reporter” value is “intense enhancement of the expression”.

For the compound `O=c1cc(-c2ccccc2)oc2ccc3ccccc3c12` [BNF, β-naphthoflavone], in the series on human CYP1A2, the “reporter activity (SEAP) compared with DMSO” value is listed as ~1 fold; the “reporter activity (SEAP)” value was “at the background level”; the “SEAP activity compared with the group where DMSO alone was added” value is “increase in the SEAP activity and Luc activity was observed”. For the same compound, in the series with human CYP1A1, the “Luc activity compared with the group where DMSO alone was added” value was “increase in the SEAP activity and Luc activity was observed”. In series [1], the “enhancement of expression of the reporter” value was “strong enhancement of expression”, the “induction of expression of the reporter” value is on record as “did not show the induction”, the “reporter activities compared with DMSO” value is “several folds to 10 or more folds higher” and the “enhancement of the expression of the reporter” value is reported as “intense enhancement of the expression”.

Turning to `COc1ccc2[nH]c([S+]([O-])Cc3ncc(C)c(OC)c3C)nc2c1` (centres unmarked) [omeprazole], the “reporter activities compared with DMSO” value in series [1] is listed as “several folds to 10 or more folds higher”.
